According to the NIST ThermoML archive (doi:10.1016/j.jct.2006.06.008):

Experiment: xn = mol fraction of the nth substance listed
Details: 101 kPa, Liquid

C1CCCC1 [cyclopentane] + CCCCO
Details | mass density, 293.15 K [kg/m3] | mass density, 298.15 K [kg/m3] | mass density, 303.15 K [kg/m3] | speed of sound, 293.15 K [m/s] | speed of sound, 298.15 K [m/s] | speed of sound, 303.15 K [m/s] | viscosity, 293.15 K [mPa·s] | viscosity, 298.15 K [mPa·s] | viscosity, 303.15 K [mPa·s]
x1 = 0.0446 | – | 802.7 | 798.9 | – | 1236 | 1218 | – | 2.388 | 2.108
x1 = 0.046 | 806.62 | – | – | 1252 | – | – | 2.714 | – | –
x1 = 0.0914 | 803.7 | – | – | 1248 | – | – | 2.541 | – | –
x1 = 0.0995 | – | 798.99 | 795.01 | – | 1229 | 1211 | – | 2.168 | 1.92
x1 = 0.1924 | 796.71 | 792.62 | 788.49 | 1239 | 1220 | 1201 | 2.095 | 1.855 | 1.651
x1 = 0.294 | 789.84 | – | – | 1230 | – | – | 1.683 | – | –
x1 = 0.312 | – | 784.43 | 780.13 | – | 1209 | 1189 | – | 1.499 | 1.349
x1 = 0.3875 | – | 779.26 | 774.85 | – | 1203 | 1182 | – | 1.233 | 1.108
x1 = 0.398 | 782.75 | – | – | 1223 | – | – | 1.358 | – | –
x1 = 0.5104 | – | 770.8 | 766.2 | – | 1194 | 1172 | – | 0.945 | 0.865
x1 = 0.5211 | 774.4 | – | – | 1215 | – | – | 1.014 | – | –
x1 = 0.6157 | – | 763.63 | 758.89 | – | 1189 | 1166 | – | 0.748 | 0.689
x1 = 0.6208 | 767.72 | – | – | 1211 | – | – | 0.807 | – | –
x1 = 0.7182 | 761.29 | – | – | 1209 | – | – | 0.654 | – | –
x1 = 0.7372 | – | 755.6 | 750.73 | – | 1186 | 1162 | – | 0.588 | 0.547
x1 = 0.8124 | 755.51 | – | – | 1210 | – | – | 0.555 | – | –
x1 = 0.8361 | – | 749.32 | 744.36 | – | 1187 | 1163 | – | 0.498 | 0.472
x1 = 0.9032 | – | 745.24 | 740.23 | – | 1191 | 1166 | – | 0.457 | 0.431
x1 = 0.9141 | 749.28 | – | – | 1216 | – | – | 0.48 | – | –
x1 = 0.9502 | – | 742.52 | 737.48 | – | 1195 | 1170 | – | 0.432 | 0.409
x1 = 0.9551 | 746.78 | – | – | 1220 | – | – | 0.456 | – | –
x1 = 1 | 744.52 | 739.55 | 734.54 | 1232 | 1206 | 1180 | 0.439 | 0.416 | 0.394

C1CCCC1 [cyclopentane] + CCCO
Details | mass density, 293.15 K [kg/m3] | mass density, 298.15 K [kg/m3] | mass density, 303.15 K [kg/m3] | speed of sound, 293.15 K [m/s] | speed of sound, 298.15 K [m/s] | speed of sound, 303.15 K [m/s] | viscosity, 293.15 K [mPa·s] | viscosity, 298.15 K [mPa·s] | viscosity, 303.15 K [mPa·s]
x1 = 0.0461 | 800.15 | 796.09 | 791.98 | 1219 | 1202 | 1184 | 2.035 | 1.809 | 1.613
x1 = 0.09 | 796.74 | 792.61 | 788.44 | 1216 | 1198 | 1180 | 1.859 | 1.655 | 1.479
x1 = 0.1885 | 789.64 | 785.36 | 781.04 | 1209 | 1190 | 1171 | 1.571 | 1.406 | 1.275
x1 = 0.2951 | 782.12 | 777.69 | 773.21 | 1204 | 1183 | 1163 | 1.284 | 1.159 | 1.052
x1 = 0.4056 | 774.79 | 770.22 | 765.59 | 1200 | 1178 | 1157 | 1.057 | 0.961 | 0.875
x1 = 0.5051 | 768.67 | 763.96 | 759.2 | 1199 | 1176 | 1153 | 0.867 | 0.79 | 0.725
x1 = 0.61 | 762.67 | 757.84 | 752.96 | 1199 | 1175 | 1152 | 0.712 | 0.656 | 0.608
x1 = 0.7109 | 757.16 | 752.26 | 747.29 | 1200 | 1176 | 1152 | 0.594 | 0.553 | 0.514
x1 = 0.8225 | 751.67 | 746.7 | 741.66 | 1206 | 1181 | 1156 | 0.507 | 0.476 | 0.448
x1 = 0.9134 | 747.4 | 742.5 | 737.43 | 1214 | 1188 | 1163 | 0.46 | 0.434 | 0.41
x1 = 0.9532 | 745.94 | 740.91 | 735.84 | 1219 | 1193 | 1168 | 0.447 | 0.422 | 0.4
x1 = 1 | 744.52 | 739.55 | 734.54 | 1232 | 1206 | 1180 | 0.439 | 0.416 | 0.394

C1CCCC1 [cyclopentane] + CCO
Details | mass density, 293.15 K [kg/m3] | mass density, 298.15 K [kg/m3] | mass density, 303.15 K [kg/m3] | speed of sound, 293.15 K [m/s] | speed of sound, 298.15 K [m/s] | speed of sound, 303.15 K [m/s] | viscosity, 293.15 K [mPa·s] | viscosity, 298.15 K [mPa·s] | viscosity, 303.15 K [mPa·s]
x1 = 0.0488 | 784.97 | 780.62 | 776.23 | 1157 | 1139 | 1122 | 1.148 | 1.047 | 0.956
x1 = 0.1011 | 780.67 | 776.25 | 771.78 | 1155 | 1137 | 1118 | 1.07 | 0.977 | 0.896
x1 = 0.1932 | 774.13 | 769.58 | 764.99 | 1154 | 1135 | 1116 | 0.955 | 0.875 | 0.806
x1 = 0.2926 | 768.22 | 763.55 | 758.83 | 1157 | 1136 | 1116 | 0.822 | 0.756 | 0.696
x1 = 0.3897 | 763.12 | 758.34 | 753.5 | 1162 | 1140 | 1118 | 0.735 | 0.679 | 0.628
x1 = 0.489 | 758.81 | 753.94 | 749.01 | 1168 | 1146 | 1123 | 0.659 | 0.609 | 0.564
x1 = 0.5973 | 754.7 | 749.75 | 744.74 | 1177 | 1153 | 1130 | 0.582 | 0.54 | 0.502
x1 = 0.7012 | 751.29 | 746.28 | 741.2 | 1186 | 1162 | 1137 | 0.521 | 0.487 | 0.456
x1 = 0.7992 | 748.53 | 743.48 | 738.38 | 1196 | 1171 | 1146 | 0.475 | 0.446 | 0.42
x1 = 0.8886 | 746.41 | 741.36 | 736.25 | 1208 | 1182 | 1156 | 0.448 | 0.423 | 0.4
x1 = 0.9495 | 745.36 | 740.33 | 735.23 | 1217 | 1192 | 1166 | 0.44 | 0.417 | 0.394
x1 = 1 | 744.52 | 739.55 | 734.54 | 1232 | 1206 | 1180 | 0.439 | 0.416 | 0.394

CCO [ethanol] + C1CCCC1
x2 = 0
Details | mass density [kg/m3] | speed of sound [m/s] | viscosity [mPa·s]
293.15 K | 789.75 | 1162 | 1.187
298.15 K | 785.46 | 1145 | 1.082
303.15 K | 781.15 | 1128 | 0.987

CCO [ethanol] + C1CCCCC1
x2 = 0
Details | mass density [kg/m3] | speed of sound [m/s] | viscosity [mPa·s]
293.15 K | 789.75 | 1162 | 1.187
298.15 K | 785.46 | 1145 | 1.082
303.15 K | 781.15 | 1128 | 0.987

CCCO [propan-1-ol] + C1CCCC1
x2 = 0
Details | mass density [kg/m3] | speed of sound [m/s] | viscosity [mPa·s]
293.15 K | 803.59 | 1223 | 2.159
298.15 K | 799.58 | 1206 | 1.915
303.15 K | 795.55 | 1189 | 1.713

CCCO [propan-1-ol] + C1CCCCC1
x2 = 0
Details | mass density [kg/m3] | speed of sound [m/s] | viscosity [mPa·s]
293.15 K | 803.59 | 1223 | 2.159
298.15 K | 799.58 | 1206 | 1.915
303.15 K | 795.55 | 1189 | 1.713
